From patent publication US20230172200A1, “A LIQUID ANTI-PATHOGENIC AGRICULTURAL COMPOSITION” (ORO AGRI INC., priority 2019, published 2023)

Assay: Paraffin wax solubility test
Format: physicochemical
Conditions: 2.0 g paraffin wax in 98 g solvent, 25 °C; for Dissolution Time: stirring at 350 rpm; for Observation: up to 24-hours stirring
Text: A method to evaluate the capability of a solvent to dissolve paraffin wax was developed and it helps to understand how will be performed certain solvent when applied to an epicuticular surface of a plant or an insect.

SMILES | Dissolution Time | Observation
CCCCCCCCCCCC(=O)OCC(C)C [isobutyl laurate] | 340 min | stable at 25° c.
CCCCCCCCCCCC(=O)OCCC(C)C [isoamyl laurate] | 620 min | stable at 25° c.
CCCCCCCCCC(=O)N(C)C [N,N-dimethyldecanamide] | – | undissolved after
CCCCCCCCCCCCCC(=O)OC(C)C [isopropyl myristate] | – | stable at 25° c.
CC1COC(=O)O1 (stereo not shown) [propylene carbonate] | – | undissolved after
C[S+](C)[O-] [dimethyl sulfoxide] | – | undissolved after
CCCCCCCCCCCC(=O)OC(C)C [isopropyl laurate] | 102 min | stable at 25° c.
O=C1CCCCC1 [cyclohexanone] | – | undissolved after
CCCCCCCCCCCC(=O)OCC(CC)CCCC (stereo not shown) [2-ethylhexyl laurate] | 930 min | stable at 25° c.
OCC1CCCO1 (stereo not shown) [tetrahydrofurfural alcohol] | – | undissolved after
CCCCCCCCCCCC(=O)OC [methyl laurate] | 300 min | stable at 25° c.
